Source: US8338465B2, “Cyclic carboxylic acid rhodanine derivatives for the treatment and prevention of tuberculosis” (priority 2006, dated 2012)
pIC50: −log10 of the molar value.

Biological target: T1, dihydrolipoamide acyltransferase (DlaT) (Mycobacterium tuberculosis, UniProt P9WIS7)
T1 sequence (P9WIS7 1-553): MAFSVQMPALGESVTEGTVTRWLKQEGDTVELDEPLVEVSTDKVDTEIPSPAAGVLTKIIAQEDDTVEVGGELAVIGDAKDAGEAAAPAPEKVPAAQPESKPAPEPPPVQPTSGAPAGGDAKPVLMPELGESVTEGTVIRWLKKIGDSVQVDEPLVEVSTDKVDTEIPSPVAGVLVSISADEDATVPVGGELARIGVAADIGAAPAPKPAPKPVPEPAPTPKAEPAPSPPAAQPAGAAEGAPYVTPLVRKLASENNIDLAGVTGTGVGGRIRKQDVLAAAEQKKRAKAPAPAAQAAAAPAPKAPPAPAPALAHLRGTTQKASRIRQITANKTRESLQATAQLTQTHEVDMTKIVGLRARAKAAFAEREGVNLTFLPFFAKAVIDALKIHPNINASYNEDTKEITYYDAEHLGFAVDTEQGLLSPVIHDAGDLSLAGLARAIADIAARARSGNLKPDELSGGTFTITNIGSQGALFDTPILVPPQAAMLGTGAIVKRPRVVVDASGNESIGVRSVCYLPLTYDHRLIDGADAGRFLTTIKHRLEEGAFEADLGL
Assay: DlaT inhibition (Dlat IC50); DTNB peroxidase assay with Lpd, DlaT and AhpD
Assay type: biochemical
Conditions: Dlat IC50 category

Row | Compound | pIC50
1 | Cc1ccc(-c2ccc(C=C3SC(=S)N(C4CCC(C(=O)O)CC4)C3=O)o2)c(F)c1 (stereo not drawn) [Compound C46, 4-{5-[1-[5-(2-fluoro-4-methyl-phenyl)-furan-2-yl]-methylidene]-4-oxo-2-thioxo-thiazolidin-3-yl}-cyclohexanecarboxylic acid] | > 5.00
2 | O=C(O)C1CCC(N2C(=O)C(=Cc3ccc(-c4ccccc4F)s3)SC2=S)CC1 (stereo not drawn) [Compound C47, 4-{5-[1-[5-(2-fluoro-phenyl)-thiophen-2-yl]-methylidene]-4-oxo-2-thioxo-thiazolidin-3-yl}-cyclohexanecarboxylic acid] | 4.40 to 4.96
3 | CCOc1ccc(-c2ccc(C=C3SC(=S)N(C4CCCC(C(=O)O)C4)C3=O)o2)cc1 (stereo not drawn) [Compound C51, 3-{5-[1-[5-(4-ethoxy-phenyl)-furan-2-yl]-methylidene]-4-oxo-2-thioxo-thiazolidin-3-yl}-cyclohexanecarboxylic acid] | > 5.00
4 | CCOc1ccc(-c2ccc(C=C3SC(=S)N(C4CCC(C(=O)O)CC4)C3=O)o2)cc1 (stereo not drawn) [Compound C52, 4-{5-[1-[5-(4-ethoxy-phenyl)-furan-2-yl]-methylidene]-4-oxo-2-thioxo-thiazolidin-3-yl}-cyclohexanecarboxylic acid] | > 5.00
5 | COc1ccc(-c2ccc(C=C3SC(=S)N(C4CCC(C(=O)O)CC4)C3=O)o2)cc1F (stereo not drawn) [Compound C53, 4-{5-[1-[5-(3-fluoro-4-methoxy-phenyl)-furan-2-yl]-methylidene]-4-oxo-2-thioxo-thiazolidin-3-yl}-cyclohexanecarboxylic acid] | > 5.00
6 | CSc1ccccc1-c1ccc(C=C2SC(=S)N(C3CCC(C(=O)O)CC3)C2=O)o1 (stereo not drawn) [Compound C54, 4-{5-[1-[5-(2-methylsulfanyl-phenyl)-furan-2-yl]-methylidene]-4-oxo-2-thioxo-thiazolidin-3-yl}-cyclohexanecarboxylic acid] | > 5.00
7 | O=C(O)C1CCC(N2C(=O)C(=Cc3ccc(-c4ccc(C(F)(F)F)cc4)o3)SC2=S)CC1 (stereo not drawn) [Compound C55, 4-{4-oxo-2-thioxo-5-[1-[5-(4-trifluoromethyl-phenyl)-furan-2-yl]-methylidene]-thiazolidin-3-yl}-cyclohexanecarboxylic acid] | 4.40 to 4.96
8 | O=C(O)C1CCCC(N2C(=O)C(=Cc3ccc(-c4ccc(Cl)cc4)o3)SC2=S)C1 (stereo not drawn) [Compound C56, 3-{5-[1-[5-(4-chloro-phenyl)-furan-2-yl]-methylidene]-4-oxo-2-thioxo-thiazolidin-3-yl}-cyclohexanecarboxylic acid] | > 5.00
9 | CCCCOc1ccc(-c2ccc(C=C3SC(=S)N(C4CCC(C(=O)O)CC4)C3=O)o2)cc1 (stereo not drawn) [Compound C57, 4-{5-[1-[5-(4-butoxy-phenyl)-furan-2-yl]-methylidene]-4-oxo-2-thioxo-thiazolidin-3-yl}-cyclohexanecarboxylic acid] | 4.40 to 4.96
10 | CS(=O)(=O)c1ccc(-c2ccc(C=C3SC(=S)N(C4CCCC(C(=O)O)C4)C3=O)o2)cc1 (stereo not drawn) [Compound C58, 3-{5-[5-(4-Methanesulfonyl-phenyl)-furan-2-ylmethylene]-4-oxo-2-thioxo-thiazolidin-3-yl}-cyclohexanecarboxylic acid] | > 5.00
11 | CS(=O)(=O)c1ccc(-c2ccc(C=C3SC(=S)N(C4CCC(C(=O)O)CC4)C3=O)o2)cc1 (stereo not drawn) [Compound C59, 4-{5-[5-(4-Methanesulfonyl-phenyl)-furan-2-ylmethylene]-4-oxo-2-thioxo-thiazolidin-3-yl}-cyclohexanecarboxylic acid] | > 5.00
12 | Cc1ccccc1-c1ccc(C=C2SC(=S)N(C3CCCC(C(=O)O)C3)C2=O)o1 (stereo not drawn) [Compound C60, 3-{4-oxo-2-thioxo-5-[1-(5-o-tolyl-furan-2-yl)-methylidene]-thiazolidin-3-yl}-cyclohexanecarboxylic acid] | > 5.00
13 | Cc1ccccc1-c1ccc(C=C2SC(=S)N(C3CCC(C(=O)O)CC3)C2=O)o1 (stereo not drawn) [Compound C61, 4-{4-oxo-2-thioxo-5-[1-(5-o-tolyl-furan-2-yl)-methylidene]-thiazolidin-3-yl}-cyclohexanecarboxylic acid] | 4.40 to 4.96
14 | CSc1cccc(-c2ccc(C=C3SC(=S)N(C4CCCC(C(=O)O)C4)C3=O)o2)c1 (stereo not drawn) [Compound C62, 3-{5-[1-[5-(3-methylsulfanyl-phenyl)-furan-2-yl]-methylidene]-4-oxo-2-thioxo-thiazolidin-3-yl}-cyclohexanecarboxylic acid] | > 5.00
15 | CSc1cccc(-c2ccc(C=C3SC(=S)N(C4CCC(C(=O)O)CC4)C3=O)o2)c1 (stereo not drawn) [Compound C63, 4-{5-[1-[5-(3-methylsulfanyl-phenyl)-furan-2-yl]-methylidene]-4-oxo-2-thioxo-thiazolidin-3-yl}-cyclohexanecarboxylic acid] | > 5.00
16 | CSc1ccc(-c2ccc(C=C3SC(=S)N(C4CCCC(C(=O)O)C4)C3=O)o2)cc1 (stereo not drawn) [Compound C64, 3-{5-[1-[5-(4-methylsulfanyl-phenyl)-furan-2-yl]-methylidene]-4-oxo-2-thioxo-thiazolidin-3-yl}-cyclohexanecarboxylic acid] | > 5.00
17 | CSc1ccc(-c2ccc(C=C3SC(=S)N(C4CCC(C(=O)O)CC4)C3=O)o2)cc1 (stereo not drawn) [Compound C65, 4-{5-[1-[5-(4-methylsulfanyl-phenyl)-furan-2-yl]-methylidene]-4-oxo-2-thioxo-thiazolidin-3-yl}-cyclohexanecarboxylic acid] | > 5.00
18 | CC(C)Oc1ccc(-c2ccc(C=C3SC(=S)N(C4CCCC(C(=O)O)C4)C3=O)o2)cc1 (stereo not drawn) [Compound C66, 3-{5-[5-(4-Isopropoxy-phenyl)-furan-2-ylmethylene]-4-oxo-2-thioxo-thiazolidin-3-yl}-cyclohexanecarboxylic acid] | > 5.00
19 | CC(C)Oc1ccc(-c2ccc(C=C3SC(=S)N(C4CCC(C(=O)O)CC4)C3=O)o2)cc1 (stereo not drawn) [Compound C67, 4-{5-[5-(4-Isopropoxy-phenyl)-furan-2-ylmethylene]-4-oxo-2-thioxo-thiazolidin-3-yl}-cyclohexanecarboxylic acid] | > 5.00
20 | Cc1ccc(-c2cccc(C=C3SC(=S)N(C4CCCC(C(=O)O)C4)C3=O)c2)cc1 (stereo not drawn) [Compound C68, 3-{5-[1-(4′-methyl-biphenyl-3-yl)-methylidene]-4-oxo-2-thioxo-thiazolidin-3-yl}cyclohexanecarboxylic acid] | 4.10 to 4.39
21 | Cc1ccc(-c2cccc(C=C3SC(=S)N(C4CCC(C(=O)O)CC4)C3=O)c2)cc1 (stereo not drawn) [Compound C69, 4-{5-[1-(4′-methyl-biphenyl-3-yl)-methylidene]-4-oxo-2-thioxo-thiazolidin-3-yl}-cyclohexanecarboxylic acid] | > 5.00
22 | O=C(O)C1CCCC(N2C(=O)C(=Cc3ccc(-c4ccccc4-c4ccccc4)o3)SC2=S)C1 (stereo not drawn) [Compound C70, 3-{5-[1-(5-biphenyl-2-yl-furan-2-yl)-methylidene]-4-oxo-2-thioxo-thiazolidin-3-yl}-cyclohexanecarboxylic acid] | > 5.00
23 | O=C(O)C1CCC(N2C(=O)C(=Cc3ccc(-c4ccccc4-c4ccccc4)o3)SC2=S)CC1 (stereo not drawn) [Compound C71, 4-{5-[1-(5-biphenyl-2-yl-furan-2-yl)-methylidene]-4-oxo-2-thioxo-thiazolidin-3-yl}-cyclohexanecarboxylic acid] | > 5.00
24 | Cc1ccc(-c2ccc(C=C3SC(=S)N(C4CCCC(C(=O)O)C4)C3=O)cc2)cc1 (stereo not drawn) [Compound C72, 3-{5-[1-(4′-methyl-biphenyl-4-yl)-methylidene]-4-oxo-2-thioxo-thiazolidin-3-yl}-cyclohexanecarboxylic acid] | > 5.00
